Reference: paper PMC10796475, “Immobilization of Thermoplasma acidophilum Glucose Dehydrogenase and Isocitrate Dehydrogenase Through Enzyme-Inorganic Hybrid Nanocrystal Formation” (Current Microbiology, 2024)

Columns and labels:
[1] = target: T1, TaIDH (T. acidophilum isocitrate dehydrogenase) (Thermoplasma acidophilum, UniProt Q9HLV8); test: NADPH formation at […] nm, initial rate (oxidative decarboxylation); format: biochemical; settings: free enzyme; NADP+ 0.2 mM, MgCl2 0.4 mM; HEPES-NaOH pH 6.5, 37 °C; partially purified
T1 construct: gene Ta0117; pET21b(+) in E. coli BL21(DE3)pLysS; partially purified by heat treatment (60 °C, 15 min)
T1 sequence (Q9HLV8 1-405): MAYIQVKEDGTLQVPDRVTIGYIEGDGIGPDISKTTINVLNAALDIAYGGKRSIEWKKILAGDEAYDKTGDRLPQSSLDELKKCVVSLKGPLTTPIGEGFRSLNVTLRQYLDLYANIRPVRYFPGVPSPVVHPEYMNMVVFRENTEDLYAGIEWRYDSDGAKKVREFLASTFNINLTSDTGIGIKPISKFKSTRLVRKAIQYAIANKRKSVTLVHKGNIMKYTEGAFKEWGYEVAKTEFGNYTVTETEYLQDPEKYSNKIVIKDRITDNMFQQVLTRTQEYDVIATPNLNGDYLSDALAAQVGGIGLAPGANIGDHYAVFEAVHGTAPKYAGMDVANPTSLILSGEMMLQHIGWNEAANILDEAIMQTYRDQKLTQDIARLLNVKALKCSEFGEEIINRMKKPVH

[2] = target: T2, TaGDH (Thermoplasma acidophilum glucose dehydrogenase) (Thermoplasma acidophilum, UniProt P13203); test: NADPH formation at […] nm, initial rate; format: biochemical; settings: free enzyme; NADP+ 0.2 mM; HEPES-NaOH pH 6.5, 37 °C; partially purified
T2 construct: gene gdh; pET21b(+) in E. coli Rosetta(DE3)pLysS; partially purified by heat treatment (60 °C, 15 min)
T2 sequence (P13203 2-361): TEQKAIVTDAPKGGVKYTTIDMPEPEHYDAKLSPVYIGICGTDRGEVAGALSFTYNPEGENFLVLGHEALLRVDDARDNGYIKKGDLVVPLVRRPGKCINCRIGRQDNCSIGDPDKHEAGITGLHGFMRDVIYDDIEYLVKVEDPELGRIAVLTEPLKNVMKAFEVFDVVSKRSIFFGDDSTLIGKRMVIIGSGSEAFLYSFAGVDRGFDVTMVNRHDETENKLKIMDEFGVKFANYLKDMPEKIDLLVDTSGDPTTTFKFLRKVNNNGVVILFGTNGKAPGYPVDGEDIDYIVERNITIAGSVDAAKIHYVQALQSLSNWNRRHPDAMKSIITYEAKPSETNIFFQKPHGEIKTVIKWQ

SMILES | NADPH formation at 340 nm, initial rate (oxidative decarboxylation) [1] | NADPH formation at 340 nm, initial rate [2]
O=C(O)CC(C(=O)O)C(O)C(=O)O (racemic) [DL-isocitric acid] | NADPH released by the decarboxylation and oxidation of DL-isocitric acid per minute | 
OC[C@H]1OC(O)[C@H](O)[C@@H](O)[C@@H]1O (stereo partly drawn) [D-glucose] |  | micromoles of NADPH released by the oxidation of glucose per minute
